Results on three compounds are retold here after paper PMC6262012, “IMB-T130 targets 3-dehydroquinate synthase and inhibits Mycobacterium tuberculosis” (Scientific Reports, 2018).

Each structure is given as a SMILES string. ≈ marks a conversion by molar mass, not a printed value. Where two headings read alike, the source gives them in different places.

Series [1] deals with Mycobacterium tuberculosis 3-dehydroquinate synthase (MtDHQS) (Mycobacterium tuberculosis, UniProt P9WPX9). As to the kind of experiment: DHQS enzyme assay (malachite green, free phosphoric acid). Format: biochemical. How it is done:
DHQS catalyse the conversion of DAHP to DHQ, and release a molecule of free phosphoric acid. The reaction was performed in a 50-µL volume with DHQS (1 μg/mL), NAD^+ (40 μg/mL), DAHP (10 μg/mL), and Tris-HCl (50 mM, pH 7.5). The solution was added to a 96-well plate and incubated for 40 min at 37 °C. Then, 100 µL of malachite green solution was added and the absorbance of the solution was measured at 620 nm[27].
We screened compounds with anti M. smegmatis activity for DHQS inhibitors. DHQS protein was pre-incubated with 0.5 μL of the test compound (10 μg/mL, dissolved in DMSO) at room temperature for 30 min in 49.5 μL of buffer (without DAHP); for the control group, 0.5 μL of DMSO was added. The reaction was initiated by adding 0.5 μL of DAHP solution followed by incubation (40 min, 37 °C). The absorbance was measured by a microplate reader. […] DHQS (1 μg/mL) was pre-incubated with increasing IMB-T130 concentrations (0.16–40 μg/mL) for 30 min at room temperature, with 1% DMSO used as a control.

In series [2] the target is T1, DHQS (Mycobacterium tuberculosis, UniProt P9WPX9). As to the kind of experiment: SPR interaction between DHQS and IMB-T130 (NTA sensor chip). Format: binding. Conditions: 1.875–30 μM IMB-T130. How it is done: Surface plasmon resonance (SPR) could detect interactions between compounds and proteins. DHQS protein is unstable under acidic conditions, so the combination of IMB-T130 and DHQS was detected using nitrilotriacetic acid (NTA) sensor chip. The chips were coated with […] to capture the His-tagged protein and then exposed to a concentration gradient (1.875–30 μM) of IMB-T130. The response units were determined by SPR[16],[17].
An SPR experiment was performed to examine the interaction between DHQS and IMB-T130. Because the protein was unstable under acidic conditions, CM5 sensor chips were not suitable. […] The sensor chips were first coated with Ni^2+ before capturing the purified DHQS. Next, the chip was exposed to different concentrations of IMB-T130, and the response units for five different concentrations (1.875–30 μM) of IMB-T130 were measured by SPR (BIAcore X100 instrument, GE Healthcare).

The target of series [3] is T1, DHQS. As to the kind of experiment: Circular dichroism spectrum of DHQS and its complex with IMB-T130. Format: binding. The text has this: CD is widely used to examine protein structures in solution. In the far UV spectral region (180–240 nm), the CD spectrum reflects the absorption of peptide bonds, and provides some information about the secondary structural features of a protein[18]. We determined the CD spectrum of the native DHQS and the complex of DHQS and IMB-T130.

The target in series [4] is T1, DHQS. As to the kind of experiment: HPLC-Q-TOF mass spectrometry of intact DHQS after incubation with IMB-T130. Conditions: suggests non-covalent binding. On the procedure: In this study, HPLC-Q-TOF mass spectrometry was also performed to determine the molecular mass of the protein.
Series [5] is described as follows: Pharmacokinetic studies in rats. Conditions: male, Sprague Dawley, rat; for half-life: plasma. Format: in vivo. On the procedure:
Pharmacokinetic parameters were determined after administration of single oral and intravenous (iv) doses of IMB-T130 at 20 and 5 mg/kg, respectively, in male Sprague Dawley rats.
Animal care and all experimental procedures were performed in accordance with local, national, and ethical principles and authority regulations, and were approved by the Institutional Animal Care and Use Committee of the Institute of Medicinal Biotechnology Institute. Sprague Dawley rats (226.5–261.2 g) were used in the pharmacokinetic studies. The formulation of IMB-T130 (4 mg/mL) was prepared in 5 mL water with 0.5% sodium carboxyl methyl cellulose for oral administration. For iv administration, 7.5 mg IMB-T130 was dissolved in 0.075 mL N-methyl pyrrolidone, and 0.6 mL of PEG400 and 0.825 mL of 20% hydroxypropyl-β-cyclodextrin (aq) were added. After vortexing for 5 min, the 5 mg/mL IMB-T130 formulation was prepared. Rats were dosed at 1 mL/kg by iv injection and at 5 mL/kg by oral gavage at 0 h. A 0.2 mL blood sample was drawn from the jugular vein at 5, 15, and 30 min, and 1, 2, 4, 6, 8, and 24 h. The blood samples were centrifuged (8000 rpm, 6 min) at 4 °C for plasma separation. The IMB-T130 plasma concentration was determined by liquid chromatography-mass spectrometry using an ACQUITY UPLC BEH C18 column (Waters; 1.7 µm, 2.1 × 50 mm)[30].

A short description of series [6]: Oral tolerability in ICR mice. Format: in vivo. On the procedure: We speculated that the compound might have anti-TB activity in vivo. IMB-T130 was well tolerated in ICR mice at up to 500 mg/kg administered orally.
Series [7] concerns M. smegmatis strain with control vector (PMV261 plasmid). Briefly: MIC by plate dilution, M. smegmatis with control vector. Format: cell-based, Mycobacterium smegmatis. From the text:
(§1) To overexpress the MtDHQS protein in M. smegmatis, we used the plasmid pMV261-eGFP. The DHQS gene was inserted between the promoter and eGFP gene using BamHI and HindIII restriction enzyme sites so that DHQS was in frame with eGFP. The resulting pMV261:DHQS-eGFP plasmid was transformed into competent M. smegmatis cells. Recombinant protein expression was confirmed by fluorescence microscopy and western blotting with an anti-eGFP antibody. The MICs of IMB-T130 against M. smegmatis with a control vector (pMV261-eGFP plasmid), strains overexpressing a non-related gene (MtL12), and strains overexpressing DHQS-eGFP were determined by the conventional plate dilution method.

For series [8], the system named is M. smegmatis strain overexpressing MtDHQS. As to the kind of experiment: MIC by plate dilution, M. smegmatis overexpressing MtDHQS. Format: cell-based, Mycobacterium smegmatis. Conditions: for MIC: Overexpressing MtDHQS.
Description: as §1

For series [9], the system named is M. smegmatis strain overexpressing MtL12. As to the kind of experiment: MIC by plate dilution, M. smegmatis overexpressing MtL12. Format: cell-based, Mycobacterium smegmatis. Conditions: Mycolicibacterium smegmatis.
Description: as §1

In series [10] the test system is M. tuberculosis H37Rv (ATCC27294) in J774A.1 mouse monocyte macrophages. As to the kind of experiment: Intracellular anti-TB activity in macrophages. Format: cell-based, Mycobacterium tuberculosis. Conditions: for Log10CFU: 3 days, control 5.13 ± 0.03; for reduction in M. tuberculosis colony forming units (CFU): 3 days exposure.
The subject of a further series is M. tuberculosis. Conditions: cited from earlier work.
Setting [11] is: Mycolicibacterium smegmatis, read-out: MIC.

T1 sequence (P9WPX9 whole entry): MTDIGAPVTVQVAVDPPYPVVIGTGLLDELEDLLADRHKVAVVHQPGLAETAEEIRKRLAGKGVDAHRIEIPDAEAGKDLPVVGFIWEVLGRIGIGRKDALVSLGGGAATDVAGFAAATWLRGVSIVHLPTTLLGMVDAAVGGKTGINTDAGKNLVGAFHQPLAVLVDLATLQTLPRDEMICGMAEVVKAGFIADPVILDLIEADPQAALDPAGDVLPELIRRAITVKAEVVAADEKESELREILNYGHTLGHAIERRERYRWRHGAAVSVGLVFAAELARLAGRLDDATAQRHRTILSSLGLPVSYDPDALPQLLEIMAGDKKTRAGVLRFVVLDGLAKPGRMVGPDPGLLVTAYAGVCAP
Chain of Mycobacterium tuberculosis 3-dehydroquinate synthase (MtDHQS) (P9WPX9 whole entry): as above

Take `O=C(Nc1nc(-c2ccccn2)cs1)c1ccc(Cl)s1` [IMB-T130, 5-chloro-N-[4-(pyridin-2-yl)-1,3-thiazol-2-yl] thiophene-2-carboxamide]: in series [1] (IC50, DHQS 1 μg/mL, pre-incubated 30 min at room temperature), the IC50 is 2700 nM. The remaining activity at 10 µg/mL in [1] (read-out: OD630 as % of the control (1% DMSO)) was less than 50%. Also, the SPR response units result on DHQS [2] is on record as “significant dose-dependent response”. Moreover, at DHQS [3] (native protein 11.2%), the “β-turn composition of DHQS in the complex” value is listed as 12.4%. Further, the “random coil composition of DHQS in the complex” value at DHQS [3] (native protein 13.4%) is listed as 16.8%. Besides, the “α-helix composition of DHQS in the complex” value at DHQS [3] (native protein 71.6%) was determined as 63.3%. Besides, the “intact mass of DHQS after incubation with compound” value at DHQS [4] is on record as “did not increase”. For the same compound, the values for the half-life in series [5] (iv 5 mg/kg) and in [5] (po 20 mg/kg) were 2.13 h and 2.17 h, respectively. In series [5] (in vivo), this compound yielded a bioavailability of 12.8%. The area under the curve AUC(0-t) in series [5] (in vivo, iv, 5 mg/kg) is 1.07 ng·h/mL; in series [5] (in vivo, po, 20 mg/kg) it was 0.55 ng·h/mL. Moreover, in series [5] (in vivo, iv, 5 mg/kg), the distribution volume (Vd) was 14.9 L/kg. The compound further gave a clearance in [5] (in vivo, iv, 5 mg/kg) of 83.2 mL/min/kg. In [5] (in vivo, po, 20 mg/kg), this compound returned a Cmax of 116 ng/mL. In addition, the time to peak (Tmax) in series [5] (in vivo, po, 20 mg/kg) worked out at 1.5 h. In addition, in series [5] (in vivo, po, 20 mg/kg), the “time exposure was higher than the MIC (80 ng/mL)” value was “about 4 hours”. The “well tolerated oral dose” value in [6] (administered orally) is “up to 500 mg/kg”. For the same compound, the adverse effects entry in [6] (oral, over 72 hours) is recorded as “No adverse effects were observed”. Further, the minimal inhibitory concentration (MIC) in series [7] was found to be 0.312 µg/mL (≈ 0.97 µM); in series [7] (setting [11]) it was 0.312 µg/mL (≈ 0.97 µM); in series [8] (setting [11]), 2.5 µg/mL (≈ 7.77 µM); in [8], 2.5 µg/mL (≈ 7.77 µM); in series [9], 0.312 µg/mL (≈ 0.97 µM). For the same compound, the “MIC of DHQS-overexpression strain relative to control strain” value in series [8] (DHQS-overexpression vs PMV261 control strain) is “eight-fold higher”. The Log10CFU in [10] (1 μg/mL) worked out at 4.85 ± 0.06; in [10] (5 μg/mL), 4.06 ± 0.03; in series [10] (10 μg/mL), 3.77 ± 0.10. Moreover, the results for the “reduction in M. tuberculosis colony forming units (CFU)” value in series [10] (5 μg/mL) and in series [10] (10 μg/mL) were 1.07 log10 and 1.36 log10, respectively. The “minimum inhibitory concentration MIC” value in the series on M. tuberculosis (strain not printed at the place) was 0.08 µg/mL (≈ 0.249 µM). In addition, the “anti-TB activity for susceptible strains” value in the series with M. tuberculosis (susceptible strains) is “comparable anti-TB activity to rifampicin (RFP) and isoniazid (INH)”.

Take `CO[C@H]1/C=C/O[C@@]2(C)Oc3c(C)c(O)c4c(O)c(c(/C=N/N5CCN(C)CC5)c(O)c4c3C2=O)NC(=O)/C(C)=C\C=C\[C@H](C)[C@H](O)[C@@H](C)[C@@H](O)[C@@H](C)[C@H](OC(C)=O)[C@@H]1C` [RFP, rifampicin, reference compound]: the values for the Log10CFU in [10] (0.5 μg/mL), in series [10] (2 μg/mL) and in [10] (5 μg/mL) were 4.25 ± 0.07, 3.74 ± 0.05 and 3.29 ± 0.12, respectively. Besides, the “reduction in M. tuberculosis colony forming units (CFU)” value in series [10] (5 μg/mL) amounted to 1.84 log10.

With `[H]/N=C(/N)N[C@H]1[C@H](O)[C@@H](O)[C@H](O[C@@H]2O[C@@H](C)[C@](O)(C=O)[C@H]2O[C@@H]2O[C@@H](CO)[C@H](O)[C@@H](O)[C@@H]2NC)[C@@H](N/C(N)=N\[H])[C@@H]1O` [Streptomycin, reference compound], the MIC in series [7] (setting [11]), in series [8] (setting [11]) and in series [9] was 0.156 µg/mL (≈ 0.268 µM) throughout.
